Assay [1] deals with T1, Tyrosine-protein phosphatase non-receptor type 22 (Homo sapiens, UniProt Q9Y2R2).
T1 sequence (Q9Y2R2 whole entry): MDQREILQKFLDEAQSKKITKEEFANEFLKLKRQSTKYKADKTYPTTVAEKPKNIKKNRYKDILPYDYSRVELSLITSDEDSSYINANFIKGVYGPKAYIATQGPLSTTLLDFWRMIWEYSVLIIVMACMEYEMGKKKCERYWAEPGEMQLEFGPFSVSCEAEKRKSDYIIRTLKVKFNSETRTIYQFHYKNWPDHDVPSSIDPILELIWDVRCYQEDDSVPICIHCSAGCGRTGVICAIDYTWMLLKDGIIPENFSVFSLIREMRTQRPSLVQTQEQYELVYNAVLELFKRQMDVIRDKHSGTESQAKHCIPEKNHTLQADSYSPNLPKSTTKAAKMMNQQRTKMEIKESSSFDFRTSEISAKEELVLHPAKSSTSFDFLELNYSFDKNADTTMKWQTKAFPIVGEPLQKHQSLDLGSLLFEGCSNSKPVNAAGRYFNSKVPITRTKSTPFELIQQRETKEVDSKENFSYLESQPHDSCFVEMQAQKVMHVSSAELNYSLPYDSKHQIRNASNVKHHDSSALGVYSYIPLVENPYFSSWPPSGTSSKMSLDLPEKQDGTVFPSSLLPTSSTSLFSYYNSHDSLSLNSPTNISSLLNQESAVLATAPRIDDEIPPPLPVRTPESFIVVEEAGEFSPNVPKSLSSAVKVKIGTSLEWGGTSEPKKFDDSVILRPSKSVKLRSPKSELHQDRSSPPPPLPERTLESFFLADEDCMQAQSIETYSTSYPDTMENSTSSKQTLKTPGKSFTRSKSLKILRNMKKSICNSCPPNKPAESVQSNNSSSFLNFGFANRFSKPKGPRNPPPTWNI
It is filed as functional.

Assay [2] concerns the target T1, Tyrosine-protein phosphatase non-receptor type 22. It is filed as functional. This is another data set of the same source.
Assay [3] deals with T2, Tyrosine-protein phosphatase non-receptor type 7 (Homo sapiens, UniProt P35236).
T2 sequence (P35236 whole entry): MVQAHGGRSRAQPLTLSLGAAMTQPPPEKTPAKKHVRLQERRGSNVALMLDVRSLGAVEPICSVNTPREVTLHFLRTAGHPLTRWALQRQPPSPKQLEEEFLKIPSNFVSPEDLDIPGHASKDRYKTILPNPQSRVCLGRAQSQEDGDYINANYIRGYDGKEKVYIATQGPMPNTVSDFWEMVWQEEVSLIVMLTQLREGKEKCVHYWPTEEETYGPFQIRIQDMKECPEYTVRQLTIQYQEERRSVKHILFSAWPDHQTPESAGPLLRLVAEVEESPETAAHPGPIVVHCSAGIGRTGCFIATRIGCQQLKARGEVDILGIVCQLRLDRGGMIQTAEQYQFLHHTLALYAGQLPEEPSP
It is filed as functional.

Assay [4] addresses T3, Runt-related transcription factor 1/Core-binding factor subunit beta (Homo sapiens, UniProt Q01196+Q13951). Description: inhibitors of RUNX1 Runt–CBFb-SMMHC binding, primary screen, biochemical, FRET, Cerulean-Runt, Venus-CBFb-SMMHC, uHTS (AID 1434).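 Further: partner is the CBFb-SMMHC leukemia fusion protein rather than wild-type CBFb.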 It is filed as protein assay.
Assay [5] addresses T3, Runt-related transcription factor 1/Core-binding factor subunit beta. The assay is described as follows: inhibitors of RUNX1 Runt–CBFb-SMMHC binding, biochemical, TR-FRET (AID 1438). It is filed as protein assay.
The target in assay [6] is T4, E3 ubiquitin-protein ligase XIAP (Homo sapiens, UniProt P98170). Description: XIAP antagonists, biochemical, IAP family, fluorescence polarization (AID 1018). It is filed as functional. For orientation: Fluorescence polarisation rises when a labelled molecule tumbles more slowly, as on binding a larger partner.
T4 sequence (P98170 whole entry): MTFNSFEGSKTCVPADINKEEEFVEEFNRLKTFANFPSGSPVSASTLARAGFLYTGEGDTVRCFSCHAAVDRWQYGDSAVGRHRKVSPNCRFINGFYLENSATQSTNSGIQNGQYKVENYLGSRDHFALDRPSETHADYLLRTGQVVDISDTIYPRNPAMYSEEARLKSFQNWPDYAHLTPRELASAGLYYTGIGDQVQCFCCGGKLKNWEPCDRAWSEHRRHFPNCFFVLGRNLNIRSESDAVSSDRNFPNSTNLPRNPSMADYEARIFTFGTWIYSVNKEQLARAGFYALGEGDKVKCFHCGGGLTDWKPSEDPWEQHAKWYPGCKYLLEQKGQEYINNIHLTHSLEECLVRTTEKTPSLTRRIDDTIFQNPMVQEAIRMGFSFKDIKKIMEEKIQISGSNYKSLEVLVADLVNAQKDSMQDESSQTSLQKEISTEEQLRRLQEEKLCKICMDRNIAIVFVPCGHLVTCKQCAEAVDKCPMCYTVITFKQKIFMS
The target of assay [7] is T4, E3 ubiquitin-protein ligase XIAP. Description: Counter Screen using XIAP-Bir3 for Chemical Antagonists of Bir1/2 domains of IAP-family anti-apoptotic proteins. [Related pubchem assays (depositor defined):AID1018, AID1449, AID1514, AID1638, AID1749, AID1750, AID488957, AID488963].
For assay [8], the target named is T2, Tyrosine-protein phosphatase non-receptor type 7. Description: HePTP (PTPN7) phosphatase inhibitor potency, SAR follow-up, biochemical, set 2 (AID 449736). It is filed as functional.
Assay [9] has as its target T1, Tyrosine-protein phosphatase non-receptor type 22. Description: SAR LYP1 Fluorescent Assay using OMFP substrate for In Vitro dose response studies - Set 3. [Related pubchem assays (depositor defined):AID1779, AID1784, AID2140, AID2686]. It is filed as functional.
The target is the same in assay [10]. Description: SAR LYP1 Fluorescent Assay using OMFP substrate for In Vitro dose response studies - Set 2. [Related pubchem assays (depositor defined):AID1779, AID1784, AID2140, AID449726, AID488869]. It counts as functional.
The target of assay [11] is Tyrosine-protein phosphatase non-receptor type 12 (Homo sapiens, UniProt Q05209). Description: SAR Selectivity Analysis of small molecule inhibitors of PEST using pCAP in a fluorescence assay. [Related pubchem assays (depositor defined):AID1779, AID1784, AID2135]. It counts as functional.
Chain of Tyrosine-protein phosphatase non-receptor type 12 (Q05209 whole entry): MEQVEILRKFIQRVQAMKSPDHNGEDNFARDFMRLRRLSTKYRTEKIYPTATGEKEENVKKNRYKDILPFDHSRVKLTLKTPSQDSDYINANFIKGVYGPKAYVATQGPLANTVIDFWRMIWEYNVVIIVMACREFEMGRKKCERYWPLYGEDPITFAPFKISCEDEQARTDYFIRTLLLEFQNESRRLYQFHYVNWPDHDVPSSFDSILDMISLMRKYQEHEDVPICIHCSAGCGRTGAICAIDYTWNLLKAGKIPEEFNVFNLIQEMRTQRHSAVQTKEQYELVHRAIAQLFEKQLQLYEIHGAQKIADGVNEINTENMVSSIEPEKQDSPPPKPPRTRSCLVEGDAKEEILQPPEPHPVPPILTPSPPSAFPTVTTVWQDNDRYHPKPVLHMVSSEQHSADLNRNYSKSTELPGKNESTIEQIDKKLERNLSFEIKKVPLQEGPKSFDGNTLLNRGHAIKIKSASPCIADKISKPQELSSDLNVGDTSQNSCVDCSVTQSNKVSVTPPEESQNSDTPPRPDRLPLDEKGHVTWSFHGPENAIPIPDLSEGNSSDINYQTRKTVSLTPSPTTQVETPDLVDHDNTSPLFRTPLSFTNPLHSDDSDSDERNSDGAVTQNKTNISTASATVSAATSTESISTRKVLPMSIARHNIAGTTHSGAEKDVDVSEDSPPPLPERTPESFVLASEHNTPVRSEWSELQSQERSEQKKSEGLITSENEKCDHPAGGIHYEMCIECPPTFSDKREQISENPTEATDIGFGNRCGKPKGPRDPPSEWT
In assay [12] the target is T1, Tyrosine-protein phosphatase non-receptor type 22. Description: SAR LYP1 Fluorescent Assay using pCAP substrate for In Vitro dose response studies - Set 2. [Related pubchem assays (depositor defined):AID1779, AID1784, AID2135, AID449727]. It counts as functional.
For assay [13] the target is unchanged. Description: LYP (PTPN22) phosphatase inhibitor potency, SAR follow-up, biochemical, pCAP fluorogenic substrate, fluorescence, set 3 (AID 449727). It is filed as functional.
In assay [14] the target is Large T antigen (Simian virus 40, UniProt P03070). It counts as functional, Betapolyomavirus macacae.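 Further: Confirmatory-stage PubChem screen for compounds that inhibit SV40 T antigen.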
Chain of Large T antigen (P03070 whole entry): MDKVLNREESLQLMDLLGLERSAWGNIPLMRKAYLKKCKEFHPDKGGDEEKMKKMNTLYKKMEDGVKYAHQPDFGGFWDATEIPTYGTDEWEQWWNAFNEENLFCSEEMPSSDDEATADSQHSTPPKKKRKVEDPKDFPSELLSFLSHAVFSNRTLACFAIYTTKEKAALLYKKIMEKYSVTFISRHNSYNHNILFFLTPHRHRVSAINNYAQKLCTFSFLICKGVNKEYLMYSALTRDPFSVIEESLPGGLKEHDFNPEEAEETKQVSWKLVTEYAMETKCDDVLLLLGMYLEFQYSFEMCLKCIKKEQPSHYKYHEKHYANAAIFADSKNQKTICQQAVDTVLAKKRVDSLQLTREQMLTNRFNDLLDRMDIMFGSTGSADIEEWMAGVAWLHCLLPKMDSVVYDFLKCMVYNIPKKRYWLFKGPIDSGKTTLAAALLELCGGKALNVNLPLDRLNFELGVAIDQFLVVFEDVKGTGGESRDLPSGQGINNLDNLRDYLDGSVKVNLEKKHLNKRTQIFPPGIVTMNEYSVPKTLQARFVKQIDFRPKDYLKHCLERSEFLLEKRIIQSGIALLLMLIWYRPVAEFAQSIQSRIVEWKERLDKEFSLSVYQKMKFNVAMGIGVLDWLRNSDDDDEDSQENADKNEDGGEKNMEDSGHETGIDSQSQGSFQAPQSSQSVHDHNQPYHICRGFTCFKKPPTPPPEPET
Assay [15] relates to Streptococcus sp. 'group A'. The assay is described as follows: growth inhibition of control SK(-) GAS strain, dose response, counter-screen for streptokinase expression inhibitor project, luminescence, kanamycin, BacTiterGlo, confirmation (AID 1900). It counts as functional, organism-based.
Assay [16] concerns the target T5, Streptokinase A (Streptococcus pyogenes serotype M1, UniProt P10520).
T5 sequence (P10520 whole entry): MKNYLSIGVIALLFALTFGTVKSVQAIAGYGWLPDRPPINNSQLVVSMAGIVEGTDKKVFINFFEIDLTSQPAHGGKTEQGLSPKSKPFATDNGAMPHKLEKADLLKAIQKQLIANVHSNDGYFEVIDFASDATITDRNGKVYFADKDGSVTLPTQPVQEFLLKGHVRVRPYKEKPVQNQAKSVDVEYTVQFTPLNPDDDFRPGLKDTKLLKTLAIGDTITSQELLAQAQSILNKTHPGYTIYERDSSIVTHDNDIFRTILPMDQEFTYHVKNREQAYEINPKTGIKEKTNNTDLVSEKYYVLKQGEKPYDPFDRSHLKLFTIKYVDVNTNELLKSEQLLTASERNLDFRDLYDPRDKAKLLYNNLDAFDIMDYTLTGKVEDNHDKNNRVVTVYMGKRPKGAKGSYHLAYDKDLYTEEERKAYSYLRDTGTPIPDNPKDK
Description: S. pyogenes streptokinase expression inhibitors, potency, dose response, plasminogen activation absorbance, OD405 (AID 1914).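 Further: secreted streptokinase activity via plasminogen activation per viability signal from cell pellet.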 It is filed as functional, Streptococcus pyogenes M1 GAS.

The target of assay [17] is T6, Carboxy-terminal domain RNA polymerase II polypeptide A small phosphatase 1 (Homo sapiens, UniProt Q9GZU7).
T6 sequence (Q9GZU7 whole entry): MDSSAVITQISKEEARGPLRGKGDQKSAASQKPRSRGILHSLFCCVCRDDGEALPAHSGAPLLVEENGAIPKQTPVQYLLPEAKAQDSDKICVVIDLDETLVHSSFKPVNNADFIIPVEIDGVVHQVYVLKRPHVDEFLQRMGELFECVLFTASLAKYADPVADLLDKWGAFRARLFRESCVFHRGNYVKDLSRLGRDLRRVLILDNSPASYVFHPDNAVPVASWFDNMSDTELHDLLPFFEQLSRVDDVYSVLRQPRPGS
The assay is described as follows: inhibitors of CTDSP1, concentration-response testing, biochemical assay, absorbance-based, actives from ultra-high-throughput screening (AID 540297). It counts as functional.

The test system of assay [18] is Streptococcus. Description: Group A Streptococcus viability loss, dose response, counter-screen for streptokinase expression inhibitor project, luminescence, BacTiterGlo (AID 1915).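 Further: potency for reduction of bacterial viability or growth.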 It counts as functional, organism-based.
The test system of assay [19] is HEK293. Description: cells. The note with it: Homo sapiens.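 Further: cells exposed to compound for 14 hours overnight before viability readout.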
Assay [20] addresses Nucleotide-binding oligomerization domain-containing protein 2 (Homo sapiens, UniProt Q9HC29). The assay is described as follows: PubChem AID 2334. It is filed as functional.
Assay [21] concerns the target Nucleotide-binding oligomerization domain-containing protein 1 (Homo sapiens, UniProt Q9Y239). The assay is described as follows: NOD1 signaling inhibitors, SAR follow-up, revised (AID 2333). It counts as functional.
In assay [22] the target is Tumor necrosis factor (Homo sapiens, UniProt P01375). The assay is described as follows: TNFa-triggered NF-kB activation inhibitors, SAR follow-up, cell-based, revised (AID 2337). It is filed as functional.
Chain of Tumor necrosis factor (P01375 whole entry): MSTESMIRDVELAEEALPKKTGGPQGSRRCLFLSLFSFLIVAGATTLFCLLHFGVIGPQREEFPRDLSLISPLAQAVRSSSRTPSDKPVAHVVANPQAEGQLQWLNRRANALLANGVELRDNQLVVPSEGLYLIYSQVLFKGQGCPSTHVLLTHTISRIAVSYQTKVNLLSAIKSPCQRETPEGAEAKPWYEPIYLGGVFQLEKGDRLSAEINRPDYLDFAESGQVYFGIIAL
The target of assay [23] is T7, Dual specificity protein phosphatase 3 (Homo sapiens, UniProt P51452). Description: VHR1 phosphatase inhibitors, biochemical (AID 1878).
T7 sequence (P51452 whole entry): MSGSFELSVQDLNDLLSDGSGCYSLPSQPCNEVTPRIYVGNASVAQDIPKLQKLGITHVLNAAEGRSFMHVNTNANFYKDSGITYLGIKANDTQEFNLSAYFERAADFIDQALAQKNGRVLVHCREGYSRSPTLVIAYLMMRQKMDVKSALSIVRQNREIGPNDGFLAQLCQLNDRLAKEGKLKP
In assay [24] the target is T7, Dual specificity protein phosphatase 3. Description: VHR1 phosphatase inhibitors, primary screen, biochemical, absorbance, uHTS (AID 1654).
Assay [25] deals with Phospholipase A2 (Homo sapiens, UniProt P04054). It is filed as functional.
Chain of Phospholipase A2 (P04054 whole entry): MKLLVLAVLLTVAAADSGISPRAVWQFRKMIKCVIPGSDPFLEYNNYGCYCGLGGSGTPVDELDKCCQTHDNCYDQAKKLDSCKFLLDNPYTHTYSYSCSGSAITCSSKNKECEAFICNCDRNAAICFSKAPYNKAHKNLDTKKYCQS
Assay [26] has as its target T8, Dual specificity protein phosphatase 6 (Rattus norvegicus, UniProt Q64346).
T8 sequence (Q64346 whole entry): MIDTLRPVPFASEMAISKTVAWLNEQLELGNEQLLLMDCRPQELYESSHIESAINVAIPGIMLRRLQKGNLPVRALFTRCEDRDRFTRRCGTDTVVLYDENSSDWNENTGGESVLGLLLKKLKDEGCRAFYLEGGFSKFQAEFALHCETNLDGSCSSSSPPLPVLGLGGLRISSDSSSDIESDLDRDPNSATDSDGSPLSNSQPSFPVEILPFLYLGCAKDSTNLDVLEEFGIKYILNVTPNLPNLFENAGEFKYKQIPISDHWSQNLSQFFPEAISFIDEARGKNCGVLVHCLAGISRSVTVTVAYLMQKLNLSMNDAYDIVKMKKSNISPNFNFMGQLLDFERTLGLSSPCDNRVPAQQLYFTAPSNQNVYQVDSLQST
Description: MKP-3 phosphatase inhibitors, primary screen, biochemical, rat enzyme, in vitro (AID 425).

Assay [27] deals with T9, Cysteine protease ATG4B (Homo sapiens, UniProt Q9Y4P1).
T9 sequence (Q9Y4P1 whole entry): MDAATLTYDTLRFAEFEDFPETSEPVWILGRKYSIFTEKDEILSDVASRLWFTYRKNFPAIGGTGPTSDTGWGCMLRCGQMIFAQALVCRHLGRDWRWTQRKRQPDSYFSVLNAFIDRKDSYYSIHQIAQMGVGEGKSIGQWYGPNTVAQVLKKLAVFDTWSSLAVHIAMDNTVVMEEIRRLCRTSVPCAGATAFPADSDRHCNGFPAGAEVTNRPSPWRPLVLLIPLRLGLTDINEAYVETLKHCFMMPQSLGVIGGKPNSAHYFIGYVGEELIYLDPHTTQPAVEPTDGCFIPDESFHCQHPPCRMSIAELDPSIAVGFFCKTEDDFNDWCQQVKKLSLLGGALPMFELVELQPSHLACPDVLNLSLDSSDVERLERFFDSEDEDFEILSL
It is filed as functional.

What is called IC50 is the concentration needed to halve the response being measured. One may read the EC50 as the concentration giving half of the maximal effect.

Activity calls are given as the source filed them. For most assays here, no stated cut-off is given here; in the data, actives have a measured IC50 and inactives only a lower limit.

T3 sequence (Q01196 whole entry, the tested form may be a part): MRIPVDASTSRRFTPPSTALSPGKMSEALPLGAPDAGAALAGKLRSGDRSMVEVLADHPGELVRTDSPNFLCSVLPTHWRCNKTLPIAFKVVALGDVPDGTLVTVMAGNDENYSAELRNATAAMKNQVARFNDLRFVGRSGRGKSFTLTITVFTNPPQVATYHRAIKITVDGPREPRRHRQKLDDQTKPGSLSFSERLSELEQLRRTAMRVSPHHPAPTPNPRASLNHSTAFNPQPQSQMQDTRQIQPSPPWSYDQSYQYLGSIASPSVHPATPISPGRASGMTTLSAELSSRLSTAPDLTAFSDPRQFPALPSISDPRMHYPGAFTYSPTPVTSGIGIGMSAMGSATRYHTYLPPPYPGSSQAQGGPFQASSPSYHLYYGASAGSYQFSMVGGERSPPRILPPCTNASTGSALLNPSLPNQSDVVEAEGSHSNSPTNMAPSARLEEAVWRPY
T3 sequence (Q13951 whole entry, the tested form may be a part): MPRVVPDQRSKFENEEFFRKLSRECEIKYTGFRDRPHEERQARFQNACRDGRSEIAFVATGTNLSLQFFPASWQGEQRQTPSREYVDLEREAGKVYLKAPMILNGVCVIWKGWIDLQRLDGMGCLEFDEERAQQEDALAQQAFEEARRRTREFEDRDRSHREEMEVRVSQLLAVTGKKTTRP
Chain of Nucleotide-binding oligomerization domain-containing protein 2 (Q9HC29 whole entry, the tested form may be a part): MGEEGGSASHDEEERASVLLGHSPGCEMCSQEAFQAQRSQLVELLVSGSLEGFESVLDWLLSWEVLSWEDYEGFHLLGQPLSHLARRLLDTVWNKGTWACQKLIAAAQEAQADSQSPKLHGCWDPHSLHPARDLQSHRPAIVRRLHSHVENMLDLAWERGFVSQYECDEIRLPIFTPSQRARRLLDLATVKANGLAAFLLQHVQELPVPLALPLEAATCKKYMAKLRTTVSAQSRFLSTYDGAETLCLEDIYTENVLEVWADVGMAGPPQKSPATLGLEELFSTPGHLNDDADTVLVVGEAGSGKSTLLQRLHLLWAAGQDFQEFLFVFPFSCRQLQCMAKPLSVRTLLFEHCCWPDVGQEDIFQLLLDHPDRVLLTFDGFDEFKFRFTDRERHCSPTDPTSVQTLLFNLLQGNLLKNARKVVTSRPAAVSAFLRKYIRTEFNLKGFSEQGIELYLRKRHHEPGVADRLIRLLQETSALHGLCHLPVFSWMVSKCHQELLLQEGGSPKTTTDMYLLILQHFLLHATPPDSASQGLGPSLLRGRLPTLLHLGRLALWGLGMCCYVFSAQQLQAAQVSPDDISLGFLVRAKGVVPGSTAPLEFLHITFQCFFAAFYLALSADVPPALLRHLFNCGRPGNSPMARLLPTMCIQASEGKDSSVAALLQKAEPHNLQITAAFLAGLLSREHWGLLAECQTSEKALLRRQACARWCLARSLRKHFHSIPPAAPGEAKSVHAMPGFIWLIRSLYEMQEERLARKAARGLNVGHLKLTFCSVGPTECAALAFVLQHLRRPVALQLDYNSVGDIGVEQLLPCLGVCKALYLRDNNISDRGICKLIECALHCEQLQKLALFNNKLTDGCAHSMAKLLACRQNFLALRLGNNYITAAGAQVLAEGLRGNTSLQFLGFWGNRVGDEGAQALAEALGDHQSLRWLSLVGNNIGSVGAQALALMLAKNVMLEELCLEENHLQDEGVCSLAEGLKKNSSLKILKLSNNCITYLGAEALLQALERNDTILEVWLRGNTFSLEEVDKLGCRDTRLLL

`O=c1c(-c2ccccc2)c(O)c2c(n1-c1ccccc1)CCCC2`: the IC50 in assay [1], in assay [2] and in [3] was > 79.4 µM (inactive) in each case.
Take `Cc1cccn2c(=O)c(/C=C(\C#N)C(=O)NCc3ccco3)c(N3CCCC(C)C3)nc12` (stereo not given): the IC50 in assay [4] and in [5] was > 100 µM (inactive) throughout.
Take `COC(=O)c1ccc(C(=O)NC(=S)Nc2nc3c(s2)CCCC3)cc1`: the results for the IC50 in assay [6] and in [7] were > 100 µM (not active) and > 100 µM (inactive), respectively.
For `O=C(O)COc1ccc2c(c1)O/C(=C\c1cccs1)C2=O`, the IC50 in assay [8] was > 100 µM (inactive); in assay [9], > 100 µM (inactive); in assay [10], > 100 µM (inactive); in assay [11] it was > 100 µM (inactive); in assay [12], 81.2 µM (active); in assay [13], > 100 µM (inactive).
In the case of `CCC(=O)Nc1c(S(=O)(=O)c2ccccc2)c2nc3ccccc3nc2n1Cc1ccccc1`, the IC50 in assay [4] was 4.74 µM (active); in [5], > 100 µM (inactive).
`C=CCc1cccc2cc(C(=O)Nc3ccc(S(=O)(=O)Nc4nnc(CC)s4)cc3)c(=O)oc12`: the half-inhibitory concentration (IC50) in assay [1] was 9.43 µM (active); in assay [2], 8.58 µM (active); in [14], 83.2 µM (active); in assay [3], 6.18 µM (active).
On to `Clc1cc(CSc2ccccc2)nc(-c2ccccc2)n1`, for which the figures for the EC50 in [15], in [16] and in assay [18] were > 150 µM (not active), 33.8 µM (active) and > 150 µM (not active), respectively. The values for the IC50 in assay [6], in assay [7] and in assay [17] were > 100 µM (not active), > 100 µM (inactive) and 14.1 µM (active), respectively.
Consider `O=C(Nc1nc2ccccc2n1Cc1ccccc1Cl)c1ccc(Cl)cc1`, for which the IC50 in [19], in [20], in [21] and in assay [22] was > 20 µM (inactive) each time.
In the case of `O=C(N/N=C/c1ccccc1Cl)c1nc(O)c2cc([N+](=O)[O-])ccc2n1`, the IC50 is > 158 µM (inactive) in assay [23]; 12.8 µM (active) in assay [24]; 30.2 µM (inactive) in assay [25]; > 158 µM (not active) in assay [26]; 10.1 µM (active) in assay [27]; 6.91 µM (active) in [17].

The values above are taken from ChEMBL document CHEMBL1201862, “PubChem BioAssay data set” (2004).
